The source made the active and inactive calls. The rule behind the calls is not given here.

Our source for the Activity values is ChEMBL document CHEMBL3393042, “Synthesis and photophysical characterization of quasi push-pull dicyanodibenzodioxins and their anti-tumor activity against glioma cell line C6” (Bioorg Med Chem Lett, 2015).

This test relates to C6. Description: Cytotoxicity against rat C6 cells assessed as cell viability at 2 to 50 uM after 24 hrs by MTT assay. The format is functional, cell-based.

Consider `N#Cc1cc2c(cc1C#N)Oc1cc([N+](=O)[O-])ccc1O2`, for which the result was inactive.
On to `N#Cc1cc2c(cc1C#N)Oc1ccccc1O2`, for which the result was Active.
For `N#Cc1cc2c(cc1C#N)Oc1cc(Br)ccc1O2`, the result was Active.
